According to ChEMBL document CHEMBL5046315, “CRCM5484: A BET-BDII Selective Compound with Differential Anti-leukemic Drug Modulation” (J Med Chem, 2022):
Calls of active or inactive are those of the source. The rule behind the calls is not given here.

Key:
MOLM-14 [1] = test: Potentiation of selinexor-induced antileukemic activity against human MOLM-14 cells at 4.3 uM in presence of bone-marrow derived stromal cell-conditioned medium; format: functional, cell-based
[2] = system: Acute myeloid leukemic cell; test: Potentiation of vorinostat-induced antileukemic activity against patient derived mouse xenografted acute myeloid leukemic cells assessed as cell viability at 0.16 to 10 uM in presence of bone-marrow derived stromal cell-conditioned medium measured after 72 to 144 hrs by cell-titre glo luminescent assay; format: functional, cell-based; settings: Homo sapiens, dose 0.16-10 µM, time lower […], time upper 144.0 hrs
U-937 [3] = test: Potentiation of dasatinib-induced antileukemic activity against human U-937 cells at 4.3 uM in presence of bone-marrow derived stromal cell-conditioned medium; format: functional, cell-based
CCRF-CEM [4] = test: Potentiation of vorinostat-induced antileukemic activity against human CCRF-CEM cells at 4.3 uM in presence of bone-marrow derived stromal cell-conditioned medium; format: functional, cell-based
U-937 [5] = test: Potentiation of ruxolitinib-induced antileukemic activity against human U-937 cells at 4.3 uM in presence of bone-marrow derived stromal cell-conditioned medium; format: functional, cell-based
CCRF-CEM [6] = test: Potentiation of etoposide-induced antileukemic activity against human CCRF-CEM cells at 4.3 uM in presence of bone-marrow derived stromal cell-conditioned medium; format: functional, cell-based
U-937 [7] = test: Potentiation of bortezomib-induced antileukemic activity against human U-937 cells at 4.3 uM in presence of bone-marrow derived stromal cell-conditioned medium; format: functional, cell-based
MOLM-14 [8] = test: Potentiation of prima1-induced antileukemic activity against human MOLM-14 cells at 4.3 uM in presence of bone-marrow derived stromal cell-conditioned medium; format: functional, cell-based
CCRF-CEM [9] = test: Potentiation of quizartinib-induced antileukemic activity against human CCRF-CEM cells at 4.3 uM in presence of bone-marrow derived stromal cell-conditioned medium; format: functional, cell-based
CCRF-CEM [10] = test: Potentiation of GSK126-induced antileukemic activity against human CCRF-CEM cells at 4.3 uM in presence of bone-marrow derived stromal cell-conditioned medium; format: functional, cell-based
MOLM-14 [11] = test: Potentiation of midostaurin-induced antileukemic activity against human MOLM-14 cells at 4.3 uM in presence of bone-marrow derived stromal cell-conditioned medium; format: functional, cell-based
U-937 [12] = test: Potentiation of prima1-induced antileukemic activity against human U-937 cells at 4.3 uM in presence of bone-marrow derived stromal cell-conditioned medium; format: functional, cell-based
CCRF-CEM [13] = test: Potentiation of entinostat-induced antileukemic activity against human CCRF-CEM cells at 4.3 uM in presence of bone-marrow derived stromal cell-conditioned medium; format: functional, cell-based
MOLM-14 [14] = test: Potentiation of vermurafenib-induced antileukemic activity against human MOLM-14 cells at 4.3 uM in presence of bone-marrow derived stromal cell-conditioned medium; format: functional, cell-based
CCRF-CEM [15] = test: Potentiation of arsenic-induced antileukemic activity against human CCRF-CEM cells at 4.3 uM in presence of bone-marrow derived stromal cell-conditioned medium; format: functional, cell-based
[16] = target: Bromodomain-containing protein 4 (Homo sapiens, UniProt O60885); test: Inhibition of human partial length BRD4-BD2 (K333 to E460 residues) expressed in bacterial system at 1 uM by BROMOscan method relative to control
U-937 [17] = test: Potentiation of OTX015-induced antileukemic activity against human U-937 cells at 4.3 uM in presence of bone-marrow derived stromal cell-conditioned medium; format: functional, cell-based
U-937 [18] = test: Potentiation of cyclopamine-induced antileukemic activity against human U-937 cells at 4.3 uM in presence of bone-marrow derived stromal cell-conditioned medium; format: functional, cell-based
NB-4 = test: Cytotoxicity against human NB-4 cells assessed as reduction in cell viability incubated for 72 hrs; format: functional, cell-based; settings: NB-4, 72 h
CCRF-CEM [19] = test: Potentiation of prima1-induced antileukemic activity against human CCRF-CEM cells at 4.3 uM in presence of bone-marrow derived stromal cell-conditioned medium; format: functional, cell-based
MOLM-14 [20] = test: Potentiation of vincristine-induced antileukemic activity against human MOLM-14 cells at 4.3 uM in presence of bone-marrow derived stromal cell-conditioned medium; format: functional, cell-based
U-937 [21] = test: Potentiation of imatinib-induced antileukemic activity against human U-937 cells at 4.3 uM in presence of bone-marrow derived stromal cell-conditioned medium; format: functional, cell-based
MOLM-14 [22] = test: Potentiation of venetoclax-induced antileukemic activity against human MOLM-14 cells at 4.3 uM in presence of bone-marrow derived stromal cell-conditioned medium; format: functional, cell-based
CCRF-CEM [23] = test: Potentiation of panobinostat-induced antileukemic activity against human CCRF-CEM cells at 4.3 uM in presence of bone-marrow derived stromal cell-conditioned medium; format: functional, cell-based
U-937 [24] = test: Potentiation of AraC-induced antileukemic activity against human U-937 cells at 4.3 uM in presence of bone-marrow derived stromal cell-conditioned medium; format: functional, cell-based
U-937 [25] = test: Potentiation of idarubicin-induced antileukemic activity against human U-937 cells at 4.3 uM in presence of bone-marrow derived stromal cell-conditioned medium; format: functional, cell-based
MOLM-14 [26] = test: Potentiation of asparaginase-induced antileukemic activity against human MOLM-14 cells at 4.3 uM in presence of bone-marrow derived stromal cell-conditioned medium; format: functional, cell-based
U-937 [27] = test: Potentiation of quizartinib-induced antileukemic activity against human U-937 cells at 4.3 uM in presence of bone-marrow derived stromal cell-conditioned medium; format: functional, cell-based
MOLM-14 [28] = test: Potentiation of temsirolimus-induced antileukemic activity against human MOLM-14 cells at 4.3 uM in presence of bone-marrow derived stromal cell-conditioned medium; format: functional, cell-based
CCRF-CEM [29] = test: Potentiation of idelalisib-induced antileukemic activity against human CCRF-CEM cells at 4.3 uM in presence of bone-marrow derived stromal cell-conditioned medium; format: functional, cell-based
U-937 [30] = test: Potentiation of panobinostat-induced antileukemic activity against human U-937 cells at 4.3 uM in presence of bone-marrow derived stromal cell-conditioned medium; format: functional, cell-based
[31] = target: Bromodomain-containing protein 3 (Homo sapiens, UniProt Q15059); test: Inhibition of BRD3-BD2 (unknown origin) assessed as dissociation constant by ITC method
MOLM-14 [32] = test: Potentiation of AC-4-130-induced antileukemic activity against human MOLM-14 cells at 4.3 uM in presence of bone-marrow derived stromal cell-conditioned medium; format: functional, cell-based
CCRF-CEM [33] = test: Potentiation of dasatinib-induced antileukemic activity against human CCRF-CEM cells at 4.3 uM in presence of bone-marrow derived stromal cell-conditioned medium; format: functional, cell-based
MOLM-14 [34] = test: Potentiation of dasatinib-induced antileukemic activity against human MOLM-14 cells at 4.3 uM in presence of bone-marrow derived stromal cell-conditioned medium; format: functional, cell-based
U-937 [35] = test: Potentiation of luminespid-induced antileukemic activity against human U-937 cells at 4.3 uM in presence of bone-marrow derived stromal cell-conditioned medium; format: functional, cell-based
CCRF-CEM [36] = test: Potentiation of gileritinib-induced antileukemic activity against human CCRF-CEM cells at 4.3 uM in presence of bone-marrow derived stromal cell-conditioned medium; format: functional, cell-based
U-937 [37] = test: Potentiation of arsenic-induced antileukemic activity against human U-937 cells at 4.3 uM in presence of bone-marrow derived stromal cell-conditioned medium; format: functional, cell-based
CCRF-CEM [38] = test: Potentiation of AGI-5198-induced antileukemic activity against human CCRF-CEM cells at 4.3 uM in presence of bone-marrow derived stromal cell-conditioned medium; format: functional, cell-based
MOLM-14 [39] = test: Potentiation of panobinostat-induced antileukemic activity against human MOLM-14 cells at 4.3 uM in presence of bone-marrow derived stromal cell-conditioned medium; format: functional, cell-based
MOLM-14 [40] = test: Potentiation of navitoclax-induced antileukemic activity against human MOLM-14 cells at 4.3 uM in presence of bone-marrow derived stromal cell-conditioned medium; format: functional, cell-based

Sequence of Bromodomain-containing protein 3 (Q15059 whole entry): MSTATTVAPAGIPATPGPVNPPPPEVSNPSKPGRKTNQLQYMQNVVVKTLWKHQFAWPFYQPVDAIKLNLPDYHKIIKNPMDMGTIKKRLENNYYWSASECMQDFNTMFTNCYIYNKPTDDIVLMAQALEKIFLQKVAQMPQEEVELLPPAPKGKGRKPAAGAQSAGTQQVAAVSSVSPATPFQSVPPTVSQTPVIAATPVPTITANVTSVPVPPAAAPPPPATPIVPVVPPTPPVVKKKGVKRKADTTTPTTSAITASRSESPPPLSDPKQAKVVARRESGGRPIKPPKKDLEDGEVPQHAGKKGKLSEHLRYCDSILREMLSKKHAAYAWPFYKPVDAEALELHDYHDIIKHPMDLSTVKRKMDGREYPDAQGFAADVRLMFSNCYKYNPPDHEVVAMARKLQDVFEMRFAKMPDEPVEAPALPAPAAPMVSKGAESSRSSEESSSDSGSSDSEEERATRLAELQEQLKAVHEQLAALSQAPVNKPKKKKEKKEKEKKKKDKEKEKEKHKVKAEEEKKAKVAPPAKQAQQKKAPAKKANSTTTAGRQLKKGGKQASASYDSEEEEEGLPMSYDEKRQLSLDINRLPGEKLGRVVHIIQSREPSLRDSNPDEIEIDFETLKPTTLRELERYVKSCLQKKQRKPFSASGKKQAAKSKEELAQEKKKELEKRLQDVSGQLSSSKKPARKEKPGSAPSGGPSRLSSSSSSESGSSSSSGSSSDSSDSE

CC(=O)N1CCc2c(sc3nc(SCC(=O)Nc4cccnc4C)n(Cc4ccco4)c(=O)c23)C1
Activity (MOLM-14 [1]): inactive
Activity [2]: Active
Activity (U-937 [3]): inactive
Activity (CCRF-CEM [4]): inactive
Activity (U-937 [5]): inactive
Activity (CCRF-CEM [6]): inactive
Activity (U-937 [7]): inactive
Activity (MOLM-14 [8]): inactive
Activity (CCRF-CEM [9]): inactive
Activity (CCRF-CEM [10]): inactive
Activity (MOLM-14 [11]): inactive
Activity (U-937 [12]): inactive
Activity (CCRF-CEM [13]): inactive
Activity (MOLM-14 [14]): inactive
Activity (CCRF-CEM [15]): inactive
inhibition [16]: 41%
Activity (U-937 [17]): inactive
Activity (U-937 [18]): inactive
EC50 (NB-4): > 5 µM
Activity (CCRF-CEM [19]): inactive
Activity (MOLM-14 [20]): inactive
Activity (U-937 [21]): inactive
Activity (MOLM-14 [22]): inactive
Activity (CCRF-CEM [23]): inactive
Activity (U-937 [24]): inactive
Activity (U-937 [25]): inactive
Activity (MOLM-14 [26]): inactive
Activity (U-937 [27]): inactive
Activity (MOLM-14 [28]): inactive
Activity (CCRF-CEM [29]): inactive
Activity (U-937 [30]): inactive
Kd [31]: 150 nM
Activity (MOLM-14 [32]): inactive
Activity (CCRF-CEM [33]): inactive
Activity (MOLM-14 [34]): inactive
Activity (U-937 [35]): inactive
Activity (CCRF-CEM [36]): inactive
Activity (U-937 [37]): inactive
Activity (CCRF-CEM [38]): inactive
Activity (MOLM-14 [39]): inactive
Activity (MOLM-14 [40]): inactive
